Laboratory results reported in PMC10527924 (Toxicology in vitro : an international journal published in …, 2023).
Like-named read-outs stand apart in the source and are kept apart here.

Key:
[1] = not measured for this paper; no reference given; cited from earlier work
[2] = test system: excised human skin (EHS); conditions: female, 0.61 nmol/μL
[3] = test system: EpiDerm-200-X reconstructed human epidermis (RhE)
[4] = 0.61 nmol/μL
[5] = test system: EpiDerm-200-X reconstructed human epidermis (RhE); assay: In vitro permeation testing; conditions: 5 mm orifice Franz cell, finite dose 6 nmol/cm^2

SMILES	Log Kow (n-octanol-water partition coefficient) [1]	6 h Cumulative Permeation [2] [nmol/cm^2]	vehicle effect on 6 h cumulative permeation [3]	6 h Cumulative Permeation ([3]; human, 0.61 nmol/μL) [nmol/cm^2]	time of peak flux [4] [h]	6 h Cumulative Permeation ([4]; 6 h) [nmol/cm^2]	time of mean peak flux ([3]; human, 0.61 nmol/μL) [h]	time of mean peak flux [5] [h]
O=C(O)c1ccccc1O [salicylic acid]	2.26	0.18 ± 0.10	did not alter its permeation	0.32 ± 0.05	–	–	–	–
Cn1c(=O)c2c(ncn2C)n(C)c1=O [caffeine]	−0.07	0.97 ± 0.22	statistically significant decrease	3.32 ± 0.33	2	0.43 ± 0.03	3	–
C[C@]12CC[C@H]3[C@@H](CCC4=CC(=O)CC[C@@]43C)[C@@H]1CC[C@@H]2O [testosterone]	–	–	–	–	–	–	–	2
